According to patent publication US20080300147A1, “Detection and Treatment of Fibrotic Disorders” (priority 2004, published 2008):

Tests used:
[1] = system: leiomyoma smooth muscle cells (LSMC); assay: Realtime PCR mRNA expression in treated LSMC; format: cell-based, human
Protocol: (§1) Isolation and Culture of Leiomyoma and Myometrial Smooth Muscle Cells. […] Only untreated tissues were used for isolation of LSMC and MSMC. […] LSMC and MSMC were cultured in 6-well plates at an approximate density of 10^6 cells/well in DMEM-supplemented media containing 10% FBS. After reaching visual confluence, the cells were washed in serum-free media and incubated for 24 hrs under serum-free, phenol red-free condition (Chegini, N et al. Mol Hum Reprod, 2002, 8:1071-8).
(§2) Quantitative RealTime PCR. Realtime PCR was utilized for verification of 10 differentially expressed and regulated genes identified in leiomyoma and myometrium as well as LSMC and MSMC from untreated and GnRHa-treated cohorts. The selection of these genes was based not only on their expression values (up or downregulation), but classification and biological functions important to leiomyoma growth and regression, regulation by ovarian steroids, GnRHa and TGF-β. They are IL-11, CITED2, Nur77, EGR3, TGIF, TIEG, p27, p57, GAS-1 and GPRK5 representing cytokines, transcription factors, cell cycle regulators and signal transduction.
(§3) Determination of TGF-β1 on global gene expression in LSMC and MSMC. All the materials utilized for this study including isolation of leiomyoma and myometrial cells are identical to those described in detail above. To determine the effect of TGF-β1 on global gene expression in LSMC and MSMC, the cells were cultured in 6-well plates at approximate density of 10^6 cells/well in DMEM-supplemented media containing 10% FBS. […] The cells were then treated with 2.5 ng/ml of TGF-β1 (R & D System, Minneapolis, […].) for 2, 6 and 12 hours. […] The cells were washed and then treated with TGF-β1 (2.5 ng/ml) for 2 hours. Parallel experiments using untreated cells were used as controls including an additional control for TGF-β type II receptor antisense and sense experiments.
(§4) Total cellular RNA was isolated from LSMC- and MSMC-treated and untreated controls and subjected to microarray analysis. To maintain standard and allow for comparative analysis, the GeneChips used in this study were utilized, simultaneously processed and their gene expression values were subjected to global normalization and transformation. Following these unsupervised assessments the coefficient of variation was calculated for each probe set across all the chips used in this study, and the selected gene expression values of this study were independently subjected to supervised learning including R programming analysis and ANOVA with false discovery rate selected at p<0.001 (Moustakas, A. Immunol Lett, 2002, 82:85-91; Verrecchia, F. et al. J Biol Chem, 2001, 276:17058-17062). The genes identified in these cohorts were analyzed for functional annotation and visualized using Database for Annotation, Visualization, and Integrated Discovery (DAVID) software with integrated GoCharts. Following the analysis, we selected 12 of the differentially expressed and regulated genes, including 10 identified and validated in leiomyoma and myometrium from untreated and GnRHa-treated cohorts, as well as LSMC and MSMC treated in vitro with GnRHa, for validation in response to TGF-β-time dependent action using Realtime PCR. They include IL-11, EGR3, CITED2, TIEG, TGIF, Nur77, p27, p57, GAS-1 and GPRK5. In addition, the expression of Runx1 and Runx2, transcription factors that interact with TGF-β receptor signaling pathways (Zavadil, J. et al. Proc Natl Acad Sci USA, 2001, 98:6686-6691), was validated in LSMC and MSMC as well as in leiomyoma and myometrium from GnRHa-treated and untreated cohorts. Detail description of the materials and methods for Realtime PCR as well as data analysis is provided in Chegini, N. et al. J Soc Gynecol Investig, 2003, 10:161-71.
(§5) Isolation and Culture of Leiomyoma and Myometrial Smooth Muscle Cells. Leiomyoma and myometrial smooth muscle cells (LSMC and MSMC) were isolated and cultured as previously described (Chegini, N. et al. Mol Hum Reprod, 2002, 8:1071-1078). […]

[2] = system: myometrial smooth muscle cells (MSMC); assay: Realtime PCR mRNA expression in treated MSMC; format: cell-based, human
Protocol: as §1, §2, §3, §4, §5

[3] = TGF-β1 2.5 ng/ml, 2, 6 and 12 hours
[4] = TGF-β1 2.5 ng/ml, 2, 6 and 12 hrs
[5] = U0126 20 μM 2 hrs, then GnRHa 0.1 μM 2 hrs
[6] = U0126 20 μM 2 hrs, then TGF-β1 2.5 ng/ml 2 hrs

In the case of “TGF-β1: human recombinant TGF-β1 (R&D System), used at 2.5 ng/ml”, the “Gas1 expression in LSMC” value [1, 3] is reported as “suppressed”, the “Nur77 expression in LSMC” value [1, 3] is reported as “transiently increased” and the “TGIF expression in LSMC” value [1, 3] is reported as “transiently increased”. For the same molecule, the “TIEG expression in LSMC” value [1, 3] was “transiently increased”, the “p27Kip1 expression in LSMC” value [1, 3] was “suppressed” and the “p57Kip2 expression in LSMC” value [1, 3] was “suppressed”. The “CCN3 mRNA expression in LSMC” value [1, 4] was “inhibiting”, the “S100A4 mRNA expression in LSMC” value [1, 4] was “moderately inhibiting” and the “fibulin-1C mRNA expression in LSMC” value [1, 4] was “moderately inhibiting”. For the same molecule, the “increase of CCN4 mRNA expression in LSMC” value [1, 4] was “two fold”, the “FMOD expression in LSMC” value ([1]; TGF-β1 2.5 ng/ml, inhibition after 12 hrs) was “either no effect, or inhibited” and the “GAS1 expression in MSMC” value [2, 3] was “suppression”. For the same molecule, the “Nur77 expression in MSMC” value [2, 3] was “transiently increased”, the “TGIF expression in MSMC” value [2, 3] was “transiently increased” and the “TIEG expression in MSMC” value [2, 3] was “transiently increased”. The “p27Kip1 expression in MSMC” value [2, 3] was “biphasic fashion”, the “p57Kip2 expression in MSMC” value [2, 3] was “biphasic fashion” and the “CCN3 mRNA expression in MSMC” value [2, 4] was “inhibiting”. For the same molecule, the “S100A4 mRNA expression in MSMC” value [2, 4] was “moderately inhibiting”, the “fibulin-1C mRNA expression in MSMC” value [2, 4] was “increasing” and the “increase of CCN4 mRNA expression in MSMC” value [2, 4] was “two fold”. For the same molecule, the “increase in FMOD expression in MSMC” value ([2]; TGF-β1 2.5 ng/ml, declined to control levels) was 5-10 fold and the “FMOD expression in MSMC” value ([2]; TGF-β1 2.5 ng/ml, gradual reduction to control levels after 12 hrs) was “significantly increased”.
In the case of `N#CC(=C(/N)Sc1ccccc1N)/C(C#N)=C(\N)Sc1ccccc1N` [U0126], the “GnRHa-mediated action on CCN2 expression in LSMC” value [1, 5] is reported as “altered”, the “GnRHa-mediated action on CCN3 expression in LSMC” value [1, 5] is reported as “altered” and the “GnRHa-mediated action on CCN4 expression in LSMC” value [1, 5] is reported as “altered”. For the same molecule, the “GnRHa-mediated action on S100A4 expression in LSMC” value [1, 5] was “altered”, the “GnRHa-mediated action on fibulin-1C expression in LSMC” value [1, 5] was “altered” and the “expression of FMOD in LSMC treated with GnRHa” value ([1]; U0126 20 μM 2 hrs, then GnRHa 2 hrs, compared to U0126-treated cells) was “increased”. The “TGF-β-mediated CCN4 expression in LSMC” value [1, 6] was “inhibited”, the “TGF-β-mediated S100A4 expression in LSMC” value [1, 6] was “inhibited” and the “TGF-β-mediated action on CCN2 in LSMC” value [1, 6] was “limited effect”. The “TGF-β-mediated action on FMOD in LSMC” value [1, 6] was “increased”, the “TGF-β-mediated fibulin-1C expression in LSMC” value [1, 6] was “inhibited” and the “basal CCN2 mRNA expression in LSMC” value ([1]; U0126 20 μM pretreatment 2 hrs) was “altered”. For the same molecule, the “basal CCN3 mRNA expression in LSMC” value ([1]; U0126 20 μM pretreatment 2 hrs) was “altered”, the “basal CCN4 mRNA expression in LSMC” value ([1]; U0126 20 μM pretreatment 2 hrs) was “altered” and the “basal S100A4 mRNA expression in LSMC” value ([1]; U0126 20 μM pretreatment 2 hrs) was “altered”. The “basal expression of FMOD in LSMC” value ([1]; U0126 20 μM pretreatment 2 hrs) was “increased”, the “basal fibulin-1C mRNA expression in LSMC” value ([1]; U0126 20 μM pretreatment 2 hrs) was “altered” and the “GnRHa-mediated action on CCN2 expression in MSMC” value [2, 5] was “altered”. The “GnRHa-mediated action on CCN3 expression in MSMC” value [2, 5] was “altered”, the “GnRHa-mediated action on CCN4 expression in MSMC” value [2, 5] was “altered” and the “GnRHa-mediated action on S100A4 expression in MSMC” value [2, 5] was “altered”. The “GnRHa-mediated action on fibulin-1C expression in MSMC” value [2, 5] was “altered”, the “expression of FMOD in MSMC treated with GnRHa” value ([2]; U0126 20 μM 2 hrs, then GnRHa 2 hrs, compared to untreated control) was “increased” and the “TGF-β-mediated CCN3 expression in MSMC” value [2, 6] was “inhibited”. The “TGF-β-mediated CCN4 expression in MSMC” value [2, 6] was “inhibited”, the “TGF-β-mediated S100A4 expression in MSMC” value [2, 6] was “inhibited” and the “TGF-β-mediated action on CCN2 in MSMC” value [2, 6] was “limited effect”. For the same molecule, the “TGF-β-mediated action on FMOD in MSMC” value [2, 6] was “inhibiting”, the “TGF-β-mediated fibulin-1C expression in MSMC” value [2, 6] was “inhibited” and the “basal CCN2 mRNA expression in MSMC” value ([2]; U0126 20 μM pretreatment 2 hrs) was “altered”. For the same molecule, the “basal CCN3 mRNA expression in MSMC” value ([2]; U0126 20 μM pretreatment 2 hrs) was “altered”, the “basal CCN4 mRNA expression in MSMC” value ([2]; U0126 20 μM pretreatment 2 hrs) was “altered” and the “basal S100A4 mRNA expression in MSMC” value ([2]; U0126 20 μM pretreatment 2 hrs) was “altered”. For the same molecule, the “basal expression of FMOD in MSMC” value ([2]; U0126 20 μM pretreatment 2 hrs) was “increased” and the “basal fibulin-1C mRNA expression in MSMC” value ([2]; U0126 20 μM pretreatment 2 hrs) was “altered”.
